In patent US20120083522A1, “MODULATION OF INFLAMMATORY RESPONSES BY FACTOR XI” (Isis Pharmaceuitcals, inc., priority 2009, published 2012):
In the oligonucleotide strings, read from the 5' end, every base follows the letter of its sugar. An asterisk marks phosphorothioate; unmarked linkages are phosphodiester. Other units and linkages are bracketed, terminal groups are in braces. A string of capitals states the bases alone. e = 2'-O-(2-methoxyethyl) (MOE); [5mC] = 5-methylcytosine; d = 2'-deoxy (DNA)

Legend:
[1] = tested on: Factor XI mRNA; experiment: Cynomolgus monkeys, escalating doses: liver Factor XI RNA analysis (Example 29); assay type: in vivo; details: escalating doses 5, 10, 25 mg/kg s.c. over 12 weeks, day 85
Protocol: Groups, each consisting of two male and three female monkeys, were injected subcutaneously with ISIS 416838, ISIS 416850, ISIS 416858, ISIS 416864, or ISIS 417002 in escalating doses. Antisense oligonucleotide was administered to the monkeys at 5 mg/kg three times per a week for week 1; 5 mg/kg twice per week for weeks 2 and 3; 10 mg/kg three times per week for week 4; 10 mg/kg twice per week for weeks 5 and 6; 25 mg/kg three times per week for week 7; and 25 mg/kg twice per week for weeks 8, 9, 10, 11, and 12. One control group, consisting of two male and three female monkeys, was injected subcutaneously with PBS according to the same dosing regimen. An additional experimental group, consisting of two male and three female monkeys, was injected subcutaneously with ISIS 416850 in a chronic, lower dose regimen. Antisense oligonucleotide was administered to the monkeys at 5 mg/kg three times per week for week 1; 5 mg/kg twice per week for week 2 and 3; 10 mg/kg three times per week for week 4; and 10 mg/kg twice per week for weeks 5 to 12. Body weights were measured weekly. Blood samples were collected 14 days and 5 days before the start of treatment and subsequently once per week for Factor XI protein activity analysis in plasma and measurement of various hematologic factors. On day 85, the monkeys were euthanized by exsanguination while under deep anesthesia, and organs harvested for further analysis.
On day 85, RNA was extracted from liver tissue for real-time PCR analysis of Factor XI using primer probe set LTS00301 (forward primer sequence […], designated herein as SEQ ID NO 271; reverse primer sequence […], designated herein as SEQ ID NO: 272; and probe sequence TGCAGGCACAGCATCCCAGTGTTCTX, wherein X is a fluorphore, designated herein as SEQ ID NO. 273). Results are presented as percent inhibition of Factor XI, relative to PBS control.

[2] = tested on: human Factor XI mRNA; experiment: Dose-dependent inhibition and IC50 in HepG2 cells, electroporation (Example 15); assay type: cell-based
Procedure, shortened: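 HepG2 cells were electroporated with antisense oligonucleotide at 123.46, 370.37, 1,111.11, 3,333.33 and 10,000 nM and harvested after about 16 h. Factor XI mRNA was quantified by qRT-PCR (primer probe set RTS 2966), normalized to RIBOGREEN total RNA, and expressed as percent inhibition versus untreated cells.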

[3] = tested on: human Factor XI mRNA; experiment: Dose-dependent inhibition and IC50 in HepG2 cells, microwalk gapmers, electroporation (Example 16); assay type: cell-based
Protocol: These gapmers were tested at various doses in HepG2 cells. Cells were plated at a density of 20,000 cells per well and transfected using electroporation with 375 nM, 750 nM, 1,500 nM, 3,000 nM, 6,000 nM and 12,000 nM concentrations of antisense oligonucleotide, as specified in Table 54. After a treatment period of approximately 16 hours, RNA was isolated from the cells and Factor XI mRNA levels were measured by quantitative real-time PCR. Human Factor XI primer probe set RTS 2966 was used to measure mRNA levels. Factor XI mRNA levels were adjusted according to total RNA content, as measured by RIBOGREEN. Results are presented as percent inhibition of Factor XI, relative to untreated control cells.
ISIS 416850, ISIS 416858, ISIS 445522, and ISIS 445531 (see Table 52 above) were re-tested in vitro along with the microwalk gapmers under the same conditions described above.
The chimeric antisense oligonucleotides in Table 53 were designed as 3-8-3 MOE, 4-8-4 MOE, 2-10-2 MOE, 3-10-3 MOE, or 4-10-4 MOE gapmers. The 3-8-3 gapmer is 14 nucleotides in length, wherein the central gap segment is comprised of eight 2′-deoxynucleotides and is flanked on both sides (in the 5′ and 3′ directions) by wings comprising three nucleotides each. The 4-8-4 gapmer is 16 nucleotides in length, wherein the central gap segment is comprised of eight 2′-deoxynucleotides and is flanked on both sides (in the 5′ and 3′ directions) by wings comprising four nucleotides each. The 2-10-2 gapmer is 14 nucleotides in length, wherein the central gap segment is comprised of ten 2′-deoxynucleotides and is flanked on both sides (in the 5′ and 3′ directions) by wings comprising two nucleotides each. The 3-10-3 gapmer is 16 nucleotides in length, wherein the central gap segment is comprised of ten 2′-deoxynucleotides and is flanked on both sides (in the 5′ and 3′ directions) by wings comprising three nucleotides each. The 4-10-4 gapmer is 18 nucleotides in length, wherein the central gap segment is comprised of ten 2′-deoxynucleotides and is flanked on both sides (in the 5′ and 3′ directions) by wings comprising four nucleotides each. For each of the motifs (3-8-3, 4-8-4, 2-10-2, 3-10-3, and 4-10-4), each nucleotide in the 5′ wing segment and each nucleotide in the 3′ wing segment has a 2′-MOE modification. The internucleoside linkages throughout each gapmer are phosphorothioate (P═S) linkages. All cytidine residues throughout each gapmer are 5-methylcytidines. “Human Target start site” indicates the 5′-most nucleotide to which the gapmer is targeted in the human sequence. “Human Target stop site” indicates the 3′-most nucleotide to which the gapmer is targeted in the human sequence. Each gapmer listed in Table 53 is targeted to SEQ ID NO: 1 (GENBANK Accession No. NM_000128.3). Each gapmer is Table 53 is also fully cross-reactive with the rhesus monkey Factor XI gene sequence, designated herein as SEQ ID NO: 274 (exons 1-15 GENBANK Accession No. NW—001118167.1). ‘Rhesus monkey start site’ indicates the 5′-most nucleotide to which the gapmer is targeted in the rhesus monkey sequence. ‘Rhesus monkey stop site’ indicates the 3′-most nucleotide to which the gapmer is targeted to the rhesus monkey sequence.
The first two listed gapmers in Table 54 are the original gapmers (ISIS 416850 and ISIS 416858) from which the remaining gapmers were designed via microwalk and are designated by an asterisk.

Substance	% inhibition of Factor XI mRNA in liver relative to the PBS control [1]	percent inhibition of Factor XI mRNA ([2]; electroporation, 123.47 nM)	percent inhibition of Factor XI mRNA ([2]; electroporation, 370.37 nM)	percent inhibition of Factor XI mRNA ([2]; electroporation, 1,111.11 nM)	percent inhibition of Factor XI mRNA ([2]; electroporation, 3,333.33 nM)	percent inhibition of Factor XI mRNA ([2]; electroporation, 10,000.0 nM)	percent inhibition of Factor XI mRNA ([3]; electroporation, 375 nM)	percent inhibition of Factor XI mRNA ([3]; electroporation, 750 nM)	percent inhibition of Factor XI mRNA ([3]; electroporation, 1,500 nM)	percent inhibition of Factor XI mRNA ([3]; electroporation, 3,000 nM)	percent inhibition of Factor XI mRNA ([3]; electroporation, 6,000 nM)	percent inhibition of Factor XI mRNA ([3]; electroporation, 12,000 nM)
416838 (antisense GCAACCGGGATGATGAGTGC; 5-10-5 gapmer, wing sugar chemistry not given here, further chemistry not given here) [compound 416838]	37%											
416850 (antisense TGCACAGTTTCTGGCAGGCC; 5-10-5 gapmer, wing sugar chemistry not given here, further chemistry not given here) [compound 416850]	84%	0%	12%	36%	74%	73%	40%	59%	69%	87%	90%	95%
416858 (antisense ACGGCATTGGTGCACAGTTT; 5-10-5 gapmer, wing sugar chemistry not given here, further chemistry not given here) [compound 416858]	90%	0%	27%	36%	64%	70%	31%	35%	78%	85%	90%	93%
416864 (antisense GGCAGCGGACGGCATTGGTG; 5-10-5 gapmer, wing sugar chemistry not given here, further chemistry not given here) [compound 416864]	44%											
417002 (antisense GGTGCACAGTTTCTGGCAGG; 2-13-5 gapmer, wing sugar chemistry not given here, further chemistry not given here) [compound 417002]	57%											
445522 (antisense eG*e[5mC]*eA*e[5mC]*eA*dG*dT*dT*dT*d[5mC]*dT*dG*dG*e[5mC]*eA*eG*eG*e[5mC]) [compound 445522]		0%	0%	44%	63%	74%	59%	71%	83%	82%	81%	92%
445531 (antisense eG*eG*e[5mC]*eA*eT*dT*dG*dG*dT*dG*d[5mC]*dA*d[5mC]*eA*eG*eT*eT*eT) [compound 445531]		8%	16%	52%	61%	77%	44%	64%	78%	86%	91%	93%
